Experimental data published in the NIST ThermoML archive (doi:10.1021/acs.jced.5b00436).
Numbers after ± are expanded uncertainties.

Test: refractive index (Na D-line) (dimensionless)
Conditions: 293.15 K; 101.33 kPa; Liquid; Standard Abbe refractometry

Structure (SMILES) | refractive index
OCC(F)(F)C(F)(F)C(F)(F)C(F)F [2,2,3,3,4,4,5,5-octafluoro-1-pentanol] | 1.3171 ± 0.0005
CCO [ethanol] | 1.3616 ± 0.0005
O [water] | 1.3328 ± 0.0005
